# Laboratory results published in patent publication US11382918B2, “Methods for treating Huntington's Disease” (PTC Therapeutics, Inc., priority 2017, dated 2022).
# Test system: Endogenous Huntingtin Protein (HTT)
# Assay: Endogenous Huntingtin Protein Assay (ELISA-based MSD electrochemiluminescence)
# Format: cell-based
# Conditions: Table 1
# Method in brief: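 MSD electrochemiluminescence sandwich ELISA for endogenous HTT: sample lysates captured overnight at 4 °C on MW1 (expanded polyglutamine) or MAB2166 antibody. Detection used rabbit monoclonal #5656S, then goat anti-rabbit SULFO-TAG antibody, each 1 h at room temperature.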
row,SMILES,IC50
1,"Cc1cn2cc(-c3cc(=O)n4cc(N5CCNCC5)ccc4n3)cc(CO)c2n1 [compound 674, 2-[8-(hydroxymethyl)-2-methylimidazo[1,2-a]pyridin-6-yl]-7-(piperazin-1-yl)-4H-pyrido[1,2-a]pyrimidin-4-one]",3000 to 33000 nM
2,"Cc1cn2cc(-c3cc(=O)n4cc(N5CCN(C)CC5)ccc4n3)cc(CO)c2n1 [compound 677, 2-[8-(hydroxymethyl)-2-methylimidazo[1,2-a]pyridin-6-yl]-7-(4-methylpiperazin-1-yl)-4H-pyrido[1,2-a]pyrimidin-4-one]",3000 to 33000 nM
3,"CCc1nc(C)cn2nc(-c3cc(=O)n4cc(C5CCN(C(C)C)CC5)ccc4n3)cc12 [compound 679, 2-(4-ethyl-6-methylpyrazolo[1,5-a]pyrazin-2-yl)-7-[1-(propan-2-yl)piperidin-4-yl]-4H-pyrido[1,2-a]pyrimidin-4-one]",3000 to 33000 nM
4,"Cc1cn2nc(-c3cc(=O)n4cc(N5CCNCC5)ccc4n3)cc2c(C2CC2)n1 [compound 683, 2-(4-cyclopropyl-6-methylpyrazolo[1,5-a]pyrazin-2-yl)-7-(piperazin-1-yl)-4H-pyrido[1,2-a]pyrimidin-4-one]",3000 to 33000 nM
5,"Cc1cn2nc(-c3cc(=O)n4cc(N5CCN(C)CC5)ccc4n3)cc2c(C2CC2)n1 [compound 684, 2-(4-cyclopropyl-6-methylpyrazolo[1,5-a]pyrazin-2-yl)-7-(4-methylpiperazin-1-yl)-4H-pyrido[1,2-a]pyrimidin-4-one]",3000 to 33000 nM
6,"CCN1CCN(c2ccc3nc(-c4cc5c(C6CC6)nc(C)cn5n4)cc(=O)n3c2)CC1 [compound 685, 2-(4-cyclopropyl-6-methylpyrazolo[1,5-a]pyrazin-2-yl)-7-(4-ethylpiperazin-1-yl)-4H-pyrido[1,2-a]pyrimidin-4-one]",3000 to 33000 nM
7,"Cc1cn2nc(-c3cc(=O)n4cc(N5CCNCC5)ccc4n3)cc2c(N(C)C)n1 [compound 688, 2-[4-(dimethylamino)-6-methylpyrazolo[1,5-a]pyrazin-2-yl]-7-(piperazin-1-yl)-4H-pyrido[1,2-a]pyrimidin-4-one]",3000 to 33000 nM
8,"CCc1cc(-c2cc(=O)n3cc(C4CCNCC4)ccc3n2)cn2cc(C)nc12 [compound 696, 2-(8-ethyl-2-methylimidazo[1,2-a]pyridin-6-yl)-7-(piperidin-4-yl)-4H-pyrido[1,2-a]pyrimidin-4-one]",< 100 nM
9,"CCN1CCC(c2cc(C)c3nc(-c4cc5c(C)nc(C)cn5n4)cc(=O)n3c2)CC1 [compound 702, 2-(4,6-dimethylpyrazolo[1,5-a]pyrazin-2-yl)-7-(1-ethylpiperidin-4-yl)-9-methyl-4H-pyrido[1,2-a]pyrimidin-4-one]",1000 to 3000 nM
10,"Cc1cc(C2CCN(C)CC2)cn2c(=O)cc(-c3ccc4nn(C)cc4c3)nc12 [compound 705, 9-methyl-2-(2-methyl-2H-indazol-5-yl)-7-(1-methylpiperidin-4-yl)-4H-pyrido[1,2-a]pyrimidin-4-one]",500 to 1000 nM
11,"Cc1cn2nc(-c3cc(=O)n4cc(N5CCC(C)(N(C)C)CC5)ccc4n3)cc2c(C)n1 [compound 706, 7-[4-(dimethylamino)-4-methylpiperidin-1-yl]-2-(4,6-dimethylpyrazolo[1,5-a]pyrazin-2-yl)-4H-pyrido[1,2-a]pyrimidin-4-one]",3000 to 33000 nM
12,"Cc1cn2nc(-c3cc(=O)n4cc(N5CCC(C)(NCCO)CC5)ccc4n3)cc2c(C)n1 [compound 709, 2-(4,6-dimethylpyrazolo[1,5-a]pyrazin-2-yl)-7-{4-[(2-hydroxyethyl)amino]-4-methylpiperidin-1-yl}-4H-pyrido[1,2-a]pyrimidin-4-one]",3000 to 33000 nM
13,"Cc1cc(C2CCN(C3CCC3)CC2)cn2c(=O)cc(-c3ccc4nn(C)cc4c3)nc12 [compound 710, 7-(1-cyclobutylpiperidin-4-yl)-9-methyl-2-(2-methyl-2H-indazol-5-yl)-4H-pyrido[1,2-a]pyrimidin-4-one]",100 to 500 nM
14,"Cc1cc(C2CCN(CCO)CC2)cn2c(=O)cc(-c3ccc4nn(C)cc4c3)nc12 [compound 711, 7-[1-(2-hydroxyethyl)piperidin-4-yl]-9-methyl-2-(2-methyl-2H-indazol-5-yl)-4H-pyrido[1,2-a]pyrimidin-4-one]",100 to 500 nM
15,"Cc1cn2cc(-c3cc(=O)n4cc(N5CCN[C@H](C)C5)ccc4n3)cc2c(C)n1 [compound 713, 2-(1,3-dimethylpyrrolo[1,2-a]pyrazin-7-yl)-7-[(3R)-3-methylpiperazin-1-yl]-4H-pyrido[1,2-a]pyrimidin-4-one]",100 to 500 nM
16,"Cc1cn2cc(-c3cc(=O)n4cc(N5CCNCC5)ccc4n3)cc(C3CC3)c2n1 [compound 714, 2-(8-cyclopropyl-2-methylimidazo[1,2-a]pyridin-6-yl)-7-(piperazin-1-yl)-4H-pyrido[1,2-a]pyrimidin-4-one]",3000 to 33000 nM
17,"Cc1cc(C2CCN(C3CC3)CC2)cn2c(=O)cc(-c3ccc4nn(C)cc4c3)nc12 [compound 718, 7-(1-cyclopropylpiperidin-4-yl)-9-methyl-2-(2-methyl-2H-indazol-5-yl)-4H-pyrido[1,2-a]pyrimidin-4-one]",100 to 500 nM
18,"CCN1CCC(c2cc(C)c3nc(-c4ccc5nn(C)cc5c4)cc(=O)n3c2)CC1 [compound 719, 7-(1-ethylpiperidin-4-yl)-9-methyl-2-(2-methyl-2H-indazol-5-yl)-4H-pyrido[1,2-a]pyrimidin-4-one]",< 100 nM

# The remaining lines, values ahead:
row,IC50,SMILES
1,3000 to 33000 nM,"Cc1cn2nc(-c3cc(=O)n4cc(N5CCNCC5)cc(C)c4n3)cc2c(C)n1 [compound 720, 2-(4,6-dimethylpyrazolo[1,5-a]pyrazin-2-yl)-9-methyl-7-(piperazin-1-yl)-4H-pyrido[1,2-a]pyrimidin-4-one]"
2,500 to 1000 nM,"Cc1cc(C2CCNCC2)cn2c(=O)cc(-c3ccc4nn(C)cc4c3)nc12 [compound 721, 9-methyl-2-(2-methyl-2H-indazol-5-yl)-7-(piperidin-4-yl)-4H-pyrido[1,2-a]pyrimidin-4-one]"
3,3000 to 33000 nM,"CCCc1nc(C)cn2nc(-c3cc(=O)n4cc(N5CCNCC5)ccc4n3)cc12 [compound 723, 2-(6-methyl-4-propylpyrazolo[1,5-a]pyrazin-2-yl)-7-(piperazin-1-yl)-4H-pyrido[1,2-a]pyrimidin-4-one]"
4,3000 to 33000 nM,"CCCc1nc(C)cn2nc(-c3cc(=O)n4cc(N5CCN[C@H](C)C5)ccc4n3)cc12 [compound 727, 7-[(3R)-3-methylpiperazin-1-yl]-2-(6-methyl-4-propylpyrazolo[1,5-a]pyrazin-2-yl)-4H-pyrido[1,2-a]pyrimidin-4-one]"
5,1000 to 3000 nM,"Cc1cn2cc(-c3cc(=O)n4cc(N5CCNCC5)ccc4n3)cc(C(F)(F)F)c2n1 [compound 733, 2-[2-methyl-8-(trifluoromethyl)imidazo[1,2-a]pyridin-6-yl]-7-(piperazin-1-yl)-4H-pyrido[1,2-a]pyrimidin-4-one]"
6,3000 to 33000 nM,"Cc1cn2cc(-c3cc(=O)n4cc(N5CCN[C@H](C)C5)ccc4n3)cc(C(F)(F)F)c2n1 [compound 734, 7-[(3R)-3-methylpiperazin-1-yl]-2-[2-methyl-8-(trifluoromethyl)imidazo[1,2-a]pyridin-6-yl]-4H-pyrido[1,2-a]pyrimidin-4-one]"
7,3000 to 33000 nM,"Cc1cn2cc(-c3cc(=O)n4cc(N5CCN[C@@H](C)C5)ccc4n3)cc(C(F)(F)F)c2n1 [compound 735, 7-[(3S)-3-methylpiperazin-1-yl]-2-[2-methyl-8-(trifluoromethyl)imidazo[1,2-a]pyridin-6-yl]-4H-pyrido[1,2-a]pyrimidin-4-one]"
8,3000 to 33000 nM,"Cc1cn2cc(-c3cc(=O)n4cc(N5C[C@@H](C)N[C@@H](C)C5)ccc4n3)cc(C(F)(F)F)c2n1 [compound 736, 7-[(3R,5S)-3,5-dimethylpiperazin-1-yl]-2-[2-methyl-8-(trifluoromethyl)imidazo[1,2-a]pyridin-6-yl]-4H-pyrido[1,2-a]pyrimidin-4-one]"
9,100 to 500 nM,"Cc1cc(-c2cc(=O)n3cc(N4CCNCC4)ccc3n2)cc2cn(C)nc12 [compound 738, 2-(2,7-dimethyl-2H-indazol-5-yl)-7-(piperazin-1-yl)-4H-pyrido[1,2-a]pyrimidin-4-one]"
10,500 to 1000 nM,"Cc1cc(-c2cc(=O)n3cc(C4CCNCC4)ccc3n2)cc2cn(C)nc12 [compound 739, 2-(2,7-dimethyl-2H-indazol-5-yl)-7-(piperidin-4-yl)-4H-pyrido[1,2-a]pyrimidin-4-one]"
11,500 to 1000 nM,"Cc1cc(-c2cc(=O)n3cc(N4CCN[C@H](C)C4)ccc3n2)cc2cn(C)nc12 [compound 741, 2-(2,7-dimethyl-2H-indazol-5-yl)-7-[(3R)-3-methylpiperazin-1-yl]-4H-pyrido[1,2-a]pyrimidin-4-one]"
12,500 to 1000 nM,"CCc1nc(C)cn2cc(-c3cc(=O)n4cc(N5C[C@@H](C)N[C@@H](C)C5)ccc4n3)cc12 [compound 748, 7-[(3R,5S)-3,5-dimethylpiperazin-1-yl]-2-(1-ethyl-3-methylpyrrolo[1,2-a]pyrazin-7-yl)-4H-pyrido[1,2-a]pyrimidin-4-one]"
13,3000 to 33000 nM,"CCc1nc(C)cn2cc(-c3cc(=O)n4cc(N5CCCNCC5)ccc4n3)cc12 [compound 749, 7-(1,4-diazepan-1-yl)-2-(1-ethyl-3-methylpyrrolo[1,2-a]pyrazin-7-yl)-4H-pyrido[1,2-a]pyrimidin-4-one]"
14,3000 to 33000 nM,"Cc1cc(-c2cc(=O)n3cc(N4CCN[C@@H](C)C4)ccc3n2)cc2cn(C)nc12 [compound 750, 2-(2,7-dimethyl-2H-indazol-5-yl)-7-[(3S)-3-methylpiperazin-1-yl]-4H-pyrido[1,2-a]pyrimidin-4-one]"
15,3000 to 33000 nM,"Cc1cc(-c2cc(=O)n3cc(N4CCN(C)[C@@H](C)C4)ccc3n2)cc2cn(C)nc12 [compound 751, 2-(2,7-dimethyl-2H-indazol-5-yl)-7-[(3S)-3,4-dimethylpiperazin-1-yl]-4H-pyrido[1,2-a]pyrimidin-4-one]"
16,100 to 500 nM,"Cc1cc(-c2cc(=O)n3cc(C4CCN(C)CC4)ccc3n2)cc2cn(C)nc12 [compound 752, 2-(2,7-dimethyl-2H-indazol-5-yl)-7-(1-methylpiperidin-4-yl)-4H-pyrido[1,2-a]pyrimidin-4-one]"
17,100 to 500 nM,"CCN1CCC(c2ccc3nc(-c4cc(C)c5nn(C)cc5c4)cc(=O)n3c2)CC1 [compound 753, 2-(2,7-dimethyl-2H-indazol-5-yl)-7-(1-ethylpiperidin-4-yl)-4H-pyrido[1,2-a]pyrimidin-4-one]"
